Laboratory results from US20120035187A1 (priority 2009, published 2012).
Where two headings read alike, the source gives them in different places.

What was measured:
[1] = system: intracellular cyclic adenosine monophosphate (AMP); assay: Increment of intracellular cyclic AMP; assay type: cell-based
[2] = system: APP Tg mouse; assay: Novelty object recognition test, APP transgenic mouse; conditions: for Index for object discrimination: intraperitoneal, five times a week for 12 weeks
[3] = system: PC12-HS cells; conditions: 6-hydroxy dopa, 24 hours
Experimental: 6-Hydroxy dopa was used as a cytotoxic agent. Similarly as in Experiment 1, PC12-HS cells, which had been cultured in D-MEM medium supplemented with 10 v/v % FBS, were inoculated to 96-well microplates by 2×10^4/100 μl/well. […] Thereafter, the cells were fixed with 10% glutaraldehyde and the absorbance at 650 nm was measured by conventional dye-uptake method using methylene blue.

[4] = system: C57BL/6J mice with cerebrovascular dementia; assay: Novelty object recognition test, mouse with cerebrovascular dementia (ligation of right common carotid artery); assay type: in vivo; conditions: for Object discrimination index: mice with ligation of right common carotid artery, NK-4 i.p. five days a week
[5] = system: PI3K-Akt cascade; assay: Actions of NK-4 on PC12-HS cells in presence of K252a or LY294002; assay type: cell-based, rat; conditions: concrete data omitted
[6] = system: SAPK/JNK; assay: Phosphorylation of SAPK/JNK by hydrogen-peroxide-induced cell injury; assay type: cell-based
[7] = i.p. five times a week for 12 weeks

CCN1C=CC(=CC=C(C=Cc2cc[n+](CC)c3ccccc23)c2cc[n+](CC)c3ccccc23)c2ccccc21.[I-].[I-] [NK-4]
increment of intracellular cyclic adenosine monophosphate (AMP) [1]: inducing the increment of intracellular cyclic adenosine monophosphate (AMP) | Index for object discrimination ([2]; dose 100 μg/kg body weight): 0.20 ± 0.06 | Index for object discrimination ([2]; dose 500 μg/kg body weight): 0.30 ± 0.05 | adverse effect [2, 7]: No adverse effect | object discrimination test (in words) [2, 7]: improved the dementia | suppression of cytotoxicity by 6-hydroxy dopa (in words) [3]: significantly suppressed | Survival-cell percentage (%) ([3]; compound 0.83 ng/ml): 59 ± 3% | Survival-cell percentage (%) ([3]; compound 3.3 ng/ml): 65 ± 4% | Survival-cell percentage (%) ([3]; compound 13 ng/ml): 69 ± 6 % | Survival-cell percentage (%) ([3]; compound 50 ng/ml): 70 ± 6 % | Survival-cell percentage (%) ([3]; compound 200 ng/ml): 76 ± 3 % | Survival-cell percentage (%) ([3]; compound 800 ng/ml): 92 ± 4 % | adverse effect ([4]; mice with cerebrovascular dementia, i.p. five days a week): No adverse effect | Object discrimination index ([4]; On the 3rd week after operation): 0.51 ± 0.22 | Object discrimination index ([4]; On the 4th week after operation): 0.31 ± 0.20 | inhibition by K252a of the actions of NK-4 on PC12-HS cell growth promotion and neurite outgrowth ([5]; K252a, protein kinase inhibitor specific to TrkA): did not inhibit | inhibition by LY294002 of the action of NK-4 ([5]; LY294002, PI3K inhibitor): is inhibited by LY294002 | phosphorylation of SAPK/JNK [6]: inhibits the phosphorylation of SAPK/JNK
